Test results taken from ChEMBL document CHEMBL1157802, “5-Functionalized indazoles as glucocorticoid receptor agonists” (Bioorg Med Chem Lett, 2010).

Tests used:
[1] = biological target: Sodium-dependent noradrenaline transporter (Homo sapiens) (UniProt P23975); experiment: Inhibition of norepinephrine transporter at 1 uM
[2] = Inhibition of calcium channel L type dihydropyridine binding site at 1 uM
[3] = biological target: Beta-2 adrenergic receptor (Homo sapiens) (UniProt P07550); experiment: Inhibition of adrenergic beta2 receptor at 1 uM
[4] = biological target: Mu-type opioid receptor (Homo sapiens) (UniProt P35372); experiment: Inhibition of mu opioid receptor at 1 uM
Chain of Mu-type opioid receptor (Homo sapiens) (P35372 whole entry): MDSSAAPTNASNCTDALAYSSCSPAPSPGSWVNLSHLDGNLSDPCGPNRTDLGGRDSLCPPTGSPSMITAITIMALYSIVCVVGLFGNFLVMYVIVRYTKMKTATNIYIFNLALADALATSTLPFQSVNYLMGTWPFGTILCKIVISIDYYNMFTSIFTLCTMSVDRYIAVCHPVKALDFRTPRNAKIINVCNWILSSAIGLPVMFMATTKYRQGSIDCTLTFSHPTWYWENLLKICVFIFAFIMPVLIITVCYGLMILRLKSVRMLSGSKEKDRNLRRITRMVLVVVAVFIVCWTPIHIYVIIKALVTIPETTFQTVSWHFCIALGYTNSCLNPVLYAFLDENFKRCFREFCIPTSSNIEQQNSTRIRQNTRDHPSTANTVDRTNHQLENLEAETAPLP

[5] = Inhibition of GABAA receptor agonist site at 1 uM; assay type: functional
[6] = Inhibition of sigma 2 receptor at 1 uM
[7] = Selectivity for human glucocorticoid receptor over androgen receptor
[8] = biological target: Histamine H1 receptor (Homo sapiens) (UniProt P35367); experiment: Inhibition of histamine H1 receptor at 1 uM
Chain of Histamine H1 receptor (Homo sapiens) (P35367 whole entry): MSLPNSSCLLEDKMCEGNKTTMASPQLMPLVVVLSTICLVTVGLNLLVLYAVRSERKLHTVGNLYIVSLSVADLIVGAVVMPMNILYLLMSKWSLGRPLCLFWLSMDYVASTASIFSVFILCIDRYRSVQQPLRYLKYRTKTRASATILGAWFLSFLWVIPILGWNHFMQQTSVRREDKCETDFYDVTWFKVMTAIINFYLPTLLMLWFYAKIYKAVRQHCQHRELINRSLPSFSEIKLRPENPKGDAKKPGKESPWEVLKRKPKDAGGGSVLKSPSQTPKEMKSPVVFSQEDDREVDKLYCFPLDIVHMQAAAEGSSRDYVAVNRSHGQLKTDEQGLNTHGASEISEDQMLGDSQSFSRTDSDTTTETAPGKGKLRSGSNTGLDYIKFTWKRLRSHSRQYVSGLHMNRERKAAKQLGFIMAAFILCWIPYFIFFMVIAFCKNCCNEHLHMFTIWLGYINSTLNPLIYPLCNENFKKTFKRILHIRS

[9] = biological target: D(1A) dopamine receptor (Homo sapiens) (UniProt P21728); experiment: Inhibition of dopamine D1 receptor at 1 uM
[10] = Inhibition of nicotinic bungarotoxin-sensitive acetylcholine receptor at 1 uM
[11] = biological target: T1, Glucocorticoid receptor (Homo sapiens, UniProt P04150); experiment: Agonist activity at glucocorticoid receptor in human fibroblast assessed as inhibition of IL-1-beta-induced IL6 production treated 1 hr before IL1-beta challenge measured after 24 hrs by transrepression assay; assay type: functional
T1 sequence (P04150 whole entry): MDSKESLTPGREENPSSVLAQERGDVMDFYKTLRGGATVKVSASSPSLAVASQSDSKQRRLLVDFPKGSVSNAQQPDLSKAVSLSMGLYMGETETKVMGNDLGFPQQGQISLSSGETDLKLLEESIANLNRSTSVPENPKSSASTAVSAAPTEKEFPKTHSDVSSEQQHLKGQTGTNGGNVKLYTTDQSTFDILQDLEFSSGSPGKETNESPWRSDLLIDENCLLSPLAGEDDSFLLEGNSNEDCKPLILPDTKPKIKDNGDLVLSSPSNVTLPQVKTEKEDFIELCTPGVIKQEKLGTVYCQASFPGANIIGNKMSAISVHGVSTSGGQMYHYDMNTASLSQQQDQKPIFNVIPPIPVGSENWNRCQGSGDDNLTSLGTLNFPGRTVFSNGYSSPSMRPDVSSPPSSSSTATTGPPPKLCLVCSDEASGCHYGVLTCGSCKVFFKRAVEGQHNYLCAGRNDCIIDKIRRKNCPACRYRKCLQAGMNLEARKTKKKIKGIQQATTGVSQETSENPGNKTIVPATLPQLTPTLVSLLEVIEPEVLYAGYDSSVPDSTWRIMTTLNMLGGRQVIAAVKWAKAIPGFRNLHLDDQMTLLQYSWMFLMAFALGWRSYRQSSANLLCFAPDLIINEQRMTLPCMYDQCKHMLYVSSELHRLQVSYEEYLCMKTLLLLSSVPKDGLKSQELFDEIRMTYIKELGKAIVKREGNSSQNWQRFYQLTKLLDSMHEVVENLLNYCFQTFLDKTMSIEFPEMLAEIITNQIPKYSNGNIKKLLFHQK

[12] = Selectivity for human glucocorticoid receptor over ERalpha
[13] = biological target: D(2) dopamine receptor (Homo sapiens) (UniProt P14416); experiment: Inhibition of dopamine D2S receptor at 1 uM
Chain of D(2) dopamine receptor (Homo sapiens) (P14416 whole entry): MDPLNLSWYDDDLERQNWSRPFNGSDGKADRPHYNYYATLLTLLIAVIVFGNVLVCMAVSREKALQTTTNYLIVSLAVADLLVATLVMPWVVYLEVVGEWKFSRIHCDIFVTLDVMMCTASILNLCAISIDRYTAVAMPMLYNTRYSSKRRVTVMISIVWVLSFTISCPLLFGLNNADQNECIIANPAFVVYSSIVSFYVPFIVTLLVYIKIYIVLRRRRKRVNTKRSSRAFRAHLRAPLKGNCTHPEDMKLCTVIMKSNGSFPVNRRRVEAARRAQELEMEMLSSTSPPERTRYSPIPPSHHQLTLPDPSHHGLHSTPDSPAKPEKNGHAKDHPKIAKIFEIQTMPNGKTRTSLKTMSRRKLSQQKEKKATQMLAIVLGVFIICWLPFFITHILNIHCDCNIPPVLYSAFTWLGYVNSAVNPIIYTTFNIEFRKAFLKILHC

[14] = Inhibition of rolipram binding site at 1 uM
[15] = Inhibition of phorbol ester site of PKC at 1 uM
[16] = biological target: Beta-1 adrenergic receptor (Homo sapiens) (UniProt P08588); experiment: Inhibition of adrenergic beta-1 receptor at 1 uM
Chain of Beta-1 adrenergic receptor (Homo sapiens) (P08588 whole entry, looked up): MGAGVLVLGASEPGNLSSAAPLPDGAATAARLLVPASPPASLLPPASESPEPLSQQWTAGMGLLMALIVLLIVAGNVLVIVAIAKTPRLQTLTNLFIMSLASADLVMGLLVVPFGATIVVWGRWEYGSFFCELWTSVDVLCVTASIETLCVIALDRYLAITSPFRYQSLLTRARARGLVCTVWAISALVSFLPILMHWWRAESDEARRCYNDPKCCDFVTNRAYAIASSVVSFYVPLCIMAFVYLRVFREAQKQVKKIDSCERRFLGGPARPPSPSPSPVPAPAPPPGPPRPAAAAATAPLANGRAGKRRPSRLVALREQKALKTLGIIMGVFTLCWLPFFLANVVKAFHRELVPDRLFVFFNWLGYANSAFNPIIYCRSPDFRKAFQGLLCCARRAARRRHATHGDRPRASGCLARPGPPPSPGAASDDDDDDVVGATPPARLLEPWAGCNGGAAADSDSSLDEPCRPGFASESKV

[17] = biological target: hERG (KCNH2) (Homo sapiens, UniProt Q12809); experiment: Inhibition of human ERG at 1 uM
Chain of hERG (KCNH2) (Q12809 whole entry): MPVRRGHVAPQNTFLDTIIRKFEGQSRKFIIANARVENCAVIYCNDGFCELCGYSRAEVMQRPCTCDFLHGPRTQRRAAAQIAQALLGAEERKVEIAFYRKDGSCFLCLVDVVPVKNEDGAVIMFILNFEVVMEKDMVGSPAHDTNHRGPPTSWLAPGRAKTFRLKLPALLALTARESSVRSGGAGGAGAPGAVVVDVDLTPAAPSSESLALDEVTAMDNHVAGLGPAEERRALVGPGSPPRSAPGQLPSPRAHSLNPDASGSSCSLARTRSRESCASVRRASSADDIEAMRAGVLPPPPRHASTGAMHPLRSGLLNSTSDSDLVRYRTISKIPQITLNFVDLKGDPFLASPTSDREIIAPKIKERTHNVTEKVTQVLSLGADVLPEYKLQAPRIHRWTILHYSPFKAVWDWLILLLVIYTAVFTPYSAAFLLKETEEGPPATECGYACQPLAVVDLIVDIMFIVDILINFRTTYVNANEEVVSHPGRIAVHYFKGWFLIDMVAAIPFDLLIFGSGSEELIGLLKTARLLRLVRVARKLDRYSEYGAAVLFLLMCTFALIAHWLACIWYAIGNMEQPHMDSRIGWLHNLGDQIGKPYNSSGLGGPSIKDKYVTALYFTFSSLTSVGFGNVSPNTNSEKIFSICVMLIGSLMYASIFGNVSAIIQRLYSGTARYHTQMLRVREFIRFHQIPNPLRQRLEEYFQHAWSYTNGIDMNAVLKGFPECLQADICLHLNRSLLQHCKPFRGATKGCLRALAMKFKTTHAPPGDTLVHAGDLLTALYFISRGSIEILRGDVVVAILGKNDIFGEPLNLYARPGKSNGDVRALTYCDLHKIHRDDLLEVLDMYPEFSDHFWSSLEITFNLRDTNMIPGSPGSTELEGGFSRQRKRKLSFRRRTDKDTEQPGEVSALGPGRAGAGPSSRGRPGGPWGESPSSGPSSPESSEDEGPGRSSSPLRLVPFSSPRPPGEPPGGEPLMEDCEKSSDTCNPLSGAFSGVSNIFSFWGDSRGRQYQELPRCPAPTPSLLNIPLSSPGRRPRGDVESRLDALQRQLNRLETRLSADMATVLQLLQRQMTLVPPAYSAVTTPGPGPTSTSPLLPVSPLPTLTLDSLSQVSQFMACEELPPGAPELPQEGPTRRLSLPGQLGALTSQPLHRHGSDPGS

[18] = biological target: Adenosine receptor A2a (Homo sapiens) (UniProt P29274); experiment: Inhibition of adenosine A2A receptor at 1 uM
Chain of Adenosine receptor A2a (Homo sapiens) (P29274 whole entry): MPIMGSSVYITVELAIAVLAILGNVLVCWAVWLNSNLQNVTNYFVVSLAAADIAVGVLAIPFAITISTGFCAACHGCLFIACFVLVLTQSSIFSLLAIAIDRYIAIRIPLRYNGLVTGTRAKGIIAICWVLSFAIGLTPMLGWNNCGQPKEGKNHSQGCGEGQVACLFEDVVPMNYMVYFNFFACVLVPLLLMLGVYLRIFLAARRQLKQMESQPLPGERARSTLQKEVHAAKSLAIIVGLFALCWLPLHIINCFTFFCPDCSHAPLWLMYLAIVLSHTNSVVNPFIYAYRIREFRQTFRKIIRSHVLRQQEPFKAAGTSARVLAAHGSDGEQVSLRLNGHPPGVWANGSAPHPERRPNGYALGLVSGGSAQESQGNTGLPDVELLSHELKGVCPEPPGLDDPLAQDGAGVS

[19] = biological target: T2, Adenosine receptor A1 (Homo sapiens) (UniProt P30542); experiment: Inhibition of adenosine A1 receptor at 1 uM
T2 sequence (whole entry): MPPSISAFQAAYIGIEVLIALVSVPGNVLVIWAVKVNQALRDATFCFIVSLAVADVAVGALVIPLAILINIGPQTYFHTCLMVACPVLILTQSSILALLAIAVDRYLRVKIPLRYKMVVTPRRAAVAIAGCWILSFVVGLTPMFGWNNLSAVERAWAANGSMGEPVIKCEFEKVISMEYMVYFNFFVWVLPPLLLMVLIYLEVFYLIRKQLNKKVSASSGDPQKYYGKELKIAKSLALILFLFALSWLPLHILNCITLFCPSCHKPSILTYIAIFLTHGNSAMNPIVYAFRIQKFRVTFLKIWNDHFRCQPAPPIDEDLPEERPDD

[20] = Selectivity for human glucocorticoid receptor over ERbeta
[21] = biological target: Sigma non-opioid intracellular receptor 1 (Homo sapiens) (UniProt Q99720); experiment: Inhibition of sigma 1 receptor at 1 uM
Chain of Sigma non-opioid intracellular receptor 1 (Homo sapiens) (Q99720 whole entry): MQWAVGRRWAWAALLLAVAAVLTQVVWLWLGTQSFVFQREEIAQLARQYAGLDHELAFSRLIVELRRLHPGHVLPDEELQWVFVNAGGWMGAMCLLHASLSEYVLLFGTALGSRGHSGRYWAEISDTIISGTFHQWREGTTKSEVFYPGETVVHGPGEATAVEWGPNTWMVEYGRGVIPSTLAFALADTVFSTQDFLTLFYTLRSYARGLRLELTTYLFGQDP

[22] = Inhibition of phencyclidine receptor at 1 uM
[23] = Inhibition of central benzodiazepine receptor at 1 uM
[24] = biological target: Muscarinic acetylcholine receptor M3 (Homo sapiens) (UniProt P20309); experiment: Inhibition of muscarinic M3 receptor at 1 uM
Chain of Muscarinic acetylcholine receptor M3 (Homo sapiens) (P20309 whole entry, looked up): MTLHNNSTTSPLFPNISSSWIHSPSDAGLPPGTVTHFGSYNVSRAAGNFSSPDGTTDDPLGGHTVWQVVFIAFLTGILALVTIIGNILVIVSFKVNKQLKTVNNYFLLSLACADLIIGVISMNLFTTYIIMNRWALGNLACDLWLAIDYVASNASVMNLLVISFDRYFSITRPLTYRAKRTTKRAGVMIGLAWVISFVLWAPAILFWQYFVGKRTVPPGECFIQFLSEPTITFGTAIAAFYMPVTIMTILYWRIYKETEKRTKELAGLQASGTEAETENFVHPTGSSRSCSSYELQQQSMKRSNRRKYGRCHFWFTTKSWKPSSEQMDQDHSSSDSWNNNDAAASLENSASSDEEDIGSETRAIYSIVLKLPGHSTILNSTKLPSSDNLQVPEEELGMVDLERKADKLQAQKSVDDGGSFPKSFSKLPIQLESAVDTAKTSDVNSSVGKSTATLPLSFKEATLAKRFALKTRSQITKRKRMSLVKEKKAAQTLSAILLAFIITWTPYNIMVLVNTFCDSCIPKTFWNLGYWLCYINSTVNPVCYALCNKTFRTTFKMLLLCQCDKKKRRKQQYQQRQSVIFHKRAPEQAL

[25] = biological target: Voltage-gated inwardly rectifying potassium channel KCNH2 (Homo sapiens, UniProt Q12809); experiment: Inhibition of human ERG by patch clamp method
[26] = biological target: T1, Glucocorticoid receptor
Description: Binding affinity to human glucocorticoid receptor by fluorescence polarization competitive binding assay

[27] = Inhibition of central imidazoline I2 receptor at 1 uM
[28] = Inhibition of nicotinic acetylcholine receptor at 1 uM

Chain of Sodium-dependent noradrenaline transporter (Homo sapiens) (P23975 whole entry): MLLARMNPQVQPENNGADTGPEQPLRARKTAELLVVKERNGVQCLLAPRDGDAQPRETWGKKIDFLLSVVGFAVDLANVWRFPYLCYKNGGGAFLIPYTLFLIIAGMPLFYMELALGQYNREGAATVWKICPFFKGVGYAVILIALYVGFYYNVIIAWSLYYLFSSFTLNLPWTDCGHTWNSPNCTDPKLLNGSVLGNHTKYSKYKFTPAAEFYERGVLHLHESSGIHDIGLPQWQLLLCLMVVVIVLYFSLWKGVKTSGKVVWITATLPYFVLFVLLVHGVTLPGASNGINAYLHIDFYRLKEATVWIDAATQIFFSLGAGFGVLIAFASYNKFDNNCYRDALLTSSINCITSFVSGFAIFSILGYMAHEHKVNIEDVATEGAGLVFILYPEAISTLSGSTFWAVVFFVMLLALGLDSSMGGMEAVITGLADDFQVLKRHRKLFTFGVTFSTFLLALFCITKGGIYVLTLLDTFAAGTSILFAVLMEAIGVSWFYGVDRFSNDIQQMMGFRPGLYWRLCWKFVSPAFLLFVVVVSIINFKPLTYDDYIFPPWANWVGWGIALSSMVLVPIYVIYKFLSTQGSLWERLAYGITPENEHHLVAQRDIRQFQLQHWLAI

SMILES | inhibition [1] | inhibition [2] | inhibition [3] | inhibition [4] | inhibition [5] | inhibition [6] | Ratio [7] | inhibition [8] | inhibition [9] | inhibition [10] | EC50 [11] | Ratio [12] | inhibition [13] | inhibition [14] | inhibition [15] | inhibition [16] | inhibition at 1 µM [17] | inhibition [18] | inhibition [19] | Ratio [20] | also measured
OC(c1ccnc(Cl)c1)(c1ccc2c(cnn2-c2ccc(F)cc2)c1)C(F)(F)F (single isomer, unassigned; (-)) | < 50% | < 50% | < 50% | < 50% | < 50% | < 50% | > 1000 | < 50% | < 50% | < 50% | 627 nM | > 1000 | < 50% | < 50% | < 50% | < 50% | < 50% | < 50% | < 50% | > 1000 | inhibition [21]: < 50%; inhibition [22]: < 50%; inhibition [23]: < 50%; inhibition [24]: < 50%; IC50 [25]: > 10000 nM; IC50 [26]: 14 nM; inhibition [27]: < 50%; inhibition [28]: < 50%
Cc1cc(C(O)(c2ccc3c(cnn3-c3ccc(F)cc3)c2)C(F)(F)F)ccc1F (single isomer, unassigned; (-)) | < 50% | < 50% | < 50% | < 50% | < 50% | < 50% | > 1000 | < 50% | < 50% | < 50% | 93 nM | > 1000 | < 50% | < 50% | < 50% | < 50% | < 50% | < 50% | < 50% | > 1000 | inhibition [21]: < 50%; inhibition [22]: < 50%; inhibition [23]: < 50%; inhibition [24]: < 50%; IC50 [25]: > 10000 nM; IC50 [26]: 59 nM; inhibition [27]: < 50%; inhibition [28]: < 50%
